Assay results as given in PubChem BioAssay AID1259407 (Chemical Carcinogenesis Research Information System (CCRIS), 2018).
Activity calls are given as the source filed them. No rule for the calls is given here.

Test system: CCRIS mutagenicity, Ames/micronucleus/aberration tests
Experiment: CCRIS mutagenicity studies

SMILES: Nc1ccc(Cl)cc1
- mutagenic call (End Point: IN VITRO MICRONUCLEUS, Test System: CHL/IU CELLS, Metabolic Activation: RAT, LIVER, S-9, PHENOBARBITAL AND 5,6-BENZOFLAVONE): inactive; negative
- mutagenic call (Test System: AMES SALMONELLA TYPHIMURIUM, Strain/Indicator: TA97, Metabolic Activation: HAMSTER, LIVER, S-9, AROCLOR 1254, Method: PREINCUBATION): inactive; negative
- mutagenic call (Test System: AMES SALMONELLA TYPHIMURIUM, Strain/Indicator: TA97, Metabolic Activation: NONE, Method: PREINCUBATION): inactive; negative
- mutagenic call (Test System: AMES SALMONELLA TYPHIMURIUM, Strain/Indicator: TA97, Metabolic Activation: RAT, LIVER, S-9, AROCLOR 1254, Method: PREINCUBATION): inactive; negative
- mutagenic call (Test System: AMES SALMONELLA TYPHIMURIUM, Strain/Indicator: TA98, Metabolic Activation: HAMSTER, LIVER, S-9 (10%), AROCLOR 1254, Method: PREINCUBATION): active; positive
- mutagenic call (Test System: AMES SALMONELLA TYPHIMURIUM, Strain/Indicator: TA98, Metabolic Activation: HAMSTER, LIVER, S-9, AROCLOR 1254, Method: STANDARD PLATE): active; positive
- mutagenic call (Test System: AMES SALMONELLA TYPHIMURIUM, Strain/Indicator: TA98, Metabolic Activation: NONE, Method: PREINCUBATION): inactive; negative
- mutagenic call (Test System: AMES SALMONELLA TYPHIMURIUM, Strain/Indicator: TA98, Metabolic Activation: NONE, Method: SPOT TEST): inactive; negative
- mutagenic call (Test System: AMES SALMONELLA TYPHIMURIUM, Strain/Indicator: TA98, Metabolic Activation: RAT, LIVER, S-9 (5%, 10% OR 30%), AROCLOR 1254, Method: PREINCUBATION): active; positive
- mutagenic call (Test System: AMES SALMONELLA TYPHIMURIUM, Strain/Indicator: TA98, Metabolic Activation: RAT, LIVER, S-9, AROCLOR 1254, Method: SPOT TEST): inactive; negative
- mutagenic call (Test System: AMES SALMONELLA TYPHIMURIUM, Strain/Indicator: TA98, Metabolic Activation: RAT, LIVER, S-9, SODIUM PHENOBARBITONE, Method: SPOT TEST): inactive; negative
- mutagenic call (Test System: AMES SALMONELLA TYPHIMURIUM, Strain/Indicator: TA98, Metabolic Activation: RAT, LIVER, S-9, SODIUM PHENOBARBITONE, Method: STANDARD PLATE): inactive; negative
- mutagenic call (Test System: AMES SALMONELLA TYPHIMURIUM, Strain/Indicator: TA100, Metabolic Activation: HAMSTER, LIVER, S-9 (5% OR 10%), AROCLOR 1254, Method: PREINCUBATION): inactive; negative
- mutagenic call (Test System: AMES SALMONELLA TYPHIMURIUM, Strain/Indicator: TA100, Metabolic Activation: HAMSTER, LIVER, S-9, AROCLOR 1254, Method: PREINCUBATION): inactive; negative
- mutagenic call (Test System: AMES SALMONELLA TYPHIMURIUM, Strain/Indicator: TA100, Metabolic Activation: HAMSTER, LIVER, S-9, AROCLOR 1254, Method: STANDARD PLATE): inactive; negative
- mutagenic call (Test System: AMES SALMONELLA TYPHIMURIUM, Strain/Indicator: TA100, Metabolic Activation: NONE, Method: PREINCUBATION): inactive; negative
- mutagenic call (Test System: AMES SALMONELLA TYPHIMURIUM, Strain/Indicator: TA100, Metabolic Activation: NONE, Method: SPOT TEST): inactive; negative
- mutagenic call (Test System: AMES SALMONELLA TYPHIMURIUM, Strain/Indicator: TA100, Metabolic Activation: RAT, LIVER, S-9 (5% OR 10%), AROCLOR 1254, Method: PREINCUBATION): inactive; negative
- mutagenic call (Test System: AMES SALMONELLA TYPHIMURIUM, Strain/Indicator: TA100, Metabolic Activation: RAT, LIVER, S-9 (30%), AROCLOR 1254, Method: PREINCUBATION): inactive; negative
- mutagenic call (Test System: AMES SALMONELLA TYPHIMURIUM, Strain/Indicator: TA100, Metabolic Activation: RAT, LIVER, S-9, AROCLOR 1254, Method: PREINCUBATION): inactive; negative
- mutagenic call (Test System: AMES SALMONELLA TYPHIMURIUM, Strain/Indicator: TA100, Metabolic Activation: RAT, LIVER, S-9, AROCLOR 1254, Method: SPOT TEST): inactive; negative
- mutagenic call (Test System: AMES SALMONELLA TYPHIMURIUM, Strain/Indicator: TA100, Metabolic Activation: RAT, LIVER, S-9, AROCLOR 1254, Method: STANDARD PLATE): inactive; negative
- mutagenic call (Test System: AMES SALMONELLA TYPHIMURIUM, Strain/Indicator: TA100, Metabolic Activation: RAT, LIVER, S-9, SODIUM PHENOBARBITONE, Method: SPOT TEST): inactive; negative
- mutagenic call (Test System: AMES SALMONELLA TYPHIMURIUM, Strain/Indicator: TA100, Metabolic Activation: RAT, LIVER, S-9, SODIUM PHENOBARBITONE, Method: STANDARD PLATE): inactive; negative
- mutagenic call (Test System: AMES SALMONELLA TYPHIMURIUM, Strain/Indicator: TA1535, Metabolic Activation: HAMSTER, LIVER, S-9, AROCLOR 1254, Method: PREINCUBATION): inactive; negative
- mutagenic call (Test System: AMES SALMONELLA TYPHIMURIUM, Strain/Indicator: TA1535, Metabolic Activation: NONE, Method: PREINCUBATION): inactive; negative
- mutagenic call (Test System: AMES SALMONELLA TYPHIMURIUM, Strain/Indicator: TA1535, Metabolic Activation: NONE, Method: SPOT TEST): inactive; negative
- mutagenic call (Test System: AMES SALMONELLA TYPHIMURIUM, Strain/Indicator: TA1535, Metabolic Activation: NONE, Method: STANDARD PLATE): inactive; negative
- mutagenic call (Test System: AMES SALMONELLA TYPHIMURIUM, Strain/Indicator: TA1535, Metabolic Activation: RAT, LIVER, S-9, AROCLOR 1254, Method: PREINCUBATION): inactive; negative
- mutagenic call (Test System: AMES SALMONELLA TYPHIMURIUM, Strain/Indicator: TA1535, Metabolic Activation: RAT, LIVER, S-9, AROCLOR 1254, Method: SPOT TEST): inactive; negative
- mutagenic call (Test System: AMES SALMONELLA TYPHIMURIUM, Strain/Indicator: TA1535, Metabolic Activation: RAT, LIVER, S-9, AROCLOR 1254, Method: STANDARD PLATE): inactive; negative
- mutagenic call (Test System: AMES SALMONELLA TYPHIMURIUM, Strain/Indicator: TA1535, Metabolic Activation: RAT, LIVER, S-9, SODIUM PHENOBARBITONE, Method: SPOT TEST): inactive; negative
- mutagenic call (Test System: AMES SALMONELLA TYPHIMURIUM, Strain/Indicator: TA1535, Metabolic Activation: RAT, LIVER, S-9, SODIUM PHENOBARBITONE, Method: STANDARD PLATE): inactive; negative
- mutagenic call (Test System: AMES SALMONELLA TYPHIMURIUM, Strain/Indicator: TA1537, Metabolic Activation: HAMSTER, LIVER, S-9, AROCLOR 1254, Method: PREINCUBATION): inactive; negative
- mutagenic call (Test System: AMES SALMONELLA TYPHIMURIUM, Strain/Indicator: TA1537, Metabolic Activation: NONE, Method: PREINCUBATION): inactive; negative
- mutagenic call (Test System: AMES SALMONELLA TYPHIMURIUM, Strain/Indicator: TA1537, Metabolic Activation: NONE, Method: SPOT TEST): inactive; negative
- mutagenic call (Test System: AMES SALMONELLA TYPHIMURIUM, Strain/Indicator: TA1537, Metabolic Activation: NONE, Method: STANDARD PLATE): inactive; negative
- mutagenic call (Test System: AMES SALMONELLA TYPHIMURIUM, Strain/Indicator: TA1537, Metabolic Activation: RAT, LIVER, S-9, AROCLOR 1254, Method: PREINCUBATION): inactive; negative
- mutagenic call (Test System: AMES SALMONELLA TYPHIMURIUM, Strain/Indicator: TA1537, Metabolic Activation: RAT, LIVER, S-9, AROCLOR 1254, Method: SPOT TEST): inactive; negative
- mutagenic call (Test System: AMES SALMONELLA TYPHIMURIUM, Strain/Indicator: TA1537, Metabolic Activation: RAT, LIVER, S-9, AROCLOR 1254, Method: STANDARD PLATE): inactive; negative
- mutagenic call (Test System: AMES SALMONELLA TYPHIMURIUM, Strain/Indicator: TA1537, Metabolic Activation: RAT, LIVER, S-9, SODIUM PHENOBARBITONE, Method: SPOT TEST): inactive; negative
- mutagenic call (Test System: AMES SALMONELLA TYPHIMURIUM, Strain/Indicator: TA1537, Metabolic Activation: RAT, LIVER, S-9, SODIUM PHENOBARBITONE, Method: STANDARD PLATE): inactive; negative
- mutagenic call (Test System: AMES SALMONELLA TYPHIMURIUM, Strain/Indicator: TA1538, Metabolic Activation: NONE, Method: SPOT TEST): inactive; negative
- mutagenic call (Test System: AMES SALMONELLA TYPHIMURIUM, Strain/Indicator: TA1538, Metabolic Activation: NONE, Method: STANDARD PLATE): inactive; negative
- mutagenic call (Test System: AMES SALMONELLA TYPHIMURIUM, Strain/Indicator: TA1538, Metabolic Activation: RAT, LIVER, S-9, AROCLOR 1254, Method: SPOT TEST): inactive; negative
- mutagenic call (Test System: AMES SALMONELLA TYPHIMURIUM, Strain/Indicator: TA1538, Metabolic Activation: RAT, LIVER, S-9, AROCLOR 1254, Method: STANDARD PLATE): inactive; negative
- mutagenic call (Test System: AMES SALMONELLA TYPHIMURIUM, Strain/Indicator: TA1538, Metabolic Activation: RAT, LIVER, S-9, SODIUM PHENOBARBITONE, Method: SPOT TEST): inactive; negative
- mutagenic call (Test System: AMES SALMONELLA TYPHIMURIUM, Strain/Indicator: TA1538, Metabolic Activation: RAT, LIVER, S-9, SODIUM PHENOBARBITONE, Method: STANDARD PLATE): inactive; negative
- mutagenic call (Test System: E. COLI, Strain/Indicator: WP2 UVRA(P), Metabolic Activation: NONE, Method: STANDARD PLATE): inactive; negative
- mutagenic call (Test System: E. COLI, Strain/Indicator: WP2 UVRA, Metabolic Activation: NONE, Method: FLUCTUATION TEST): inactive; negative
- mutagenic call (Test System: E. COLI, Strain/Indicator: WP2 UVRA, Metabolic Activation: NONE, Method: STANDARD PLATE): inactive; negative
- mutagenic call (Test System: MOUSE LYMPHOMA, Strain/Indicator: L5178Y (TK+/TK-), Metabolic Activation: NONE, Method: SUSPENSION/PLATE): active; positive
- mutagenic call (Test System: MOUSE LYMPHOMA, Strain/Indicator: L5178Y (TK+/TK-), Metabolic Activation: RAT, LIVER, S-9, AROCLOR 1254, Method: SUSPENSION/PLATE): active; positive
- mutagenic call (Test System: Mouse lymphoma, Strain/Indicator: L5178Y (tk+/tk-), Metabolic Activation: None, Method: Suspension/plate): active; equivocal (previous evaluation positive)
- mutagenic call (Test System: Mouse lymphoma, Strain/Indicator: T5178Y (tk+/tk-), Metabolic Activation: Rat, Liver, S-9, Aroclor 1254, Method: Suspension/plate): active; inconclusive (previous evaluation positive)
